In patent publication US11117901B2, “Substituted pyrazolo[4,3-h]quinazolines as choline kinase inhibitors” (NERVIANO MEDICAL SCIENCES S.R.L., priority 2017, dated 2021):
Where two headings read alike, the source gives them in different places.

Columns and labels:
Δ49N-hChoKα = biological target: T1, Δ49N-hChoKα (Homo sapiens, UniProt P35790); assay: Biochemical kinase inhibition assay (Kinase-Glo luminescent) on Δ49N-hChoKα; details: ATP 5 μM, choline 5 μM, 60 min rt
T1 construct: cDNA fragment 362-1534, corresponding to aminoacids 50 457; GST (N, cleaved yes); PreScission Protease recognition site (N); made in house; host or cells: Escherichia coli BL21pLysS (DE3)
Protocol: (§1) HumanΔ49ChoKα ([…]Δ49N-hChoKα) cDNA fragment 362-1534, corresponding to aminoacids 50 457 (J. Mol. Biol. 2006, 364, 136-151), and hChoKβ full length (FL), corresponding to aminoacids 2-395 ((PLoS ONE 2009, 4, e7819), were amplified by PCR from human library and cloned, inserting upstream a Prescission Protease recognition site, in pDonor 221 vector, using the Gateway Technology® (Invitrogen). After sequence control, LR reaction was performed in the final expression pGEX 2Tg vector. Both the proteins were expressed in Escherichia coli BL21pLysS (DE3) strain in auto-induction (Kessler) medium in the presence of […] carbenicillin at 25° C. for 16 h. Cells were harvested by centrifugation, the pellet was re-suspended in Lysis buffer (50 mM Tris-HCl pH 7.8, 150 mM NaCl, 10% glycerol, 0.2% CHAPS, 20 mM DTT, Protease Inhibitor Cocktail Tablets from Roche Biochemicals) and lysed by Gaulin homogenizer (Niro Soavi). The lysate was cleared by centrifugation. The supernatant was added to GSH resin and let flow by gravity. The GSH resin was washed with 5 column volume (CV) of cold wash buffer (50 mM Tris-HCl pH 7.8, 150 mM NaCl, 10% glycerol), then with 10 CV of the same buffer containing 2 mM of DTT. Both GST-Δ49N-hChoKα and hChoKβ were subjected to on-column cleavage of the GST tag with Prescission Protease overnight. The eluted cleaved proteins were further purified by ion exchange (ResQ 6 mL chromatography column from GE healthcare) with a gradient from 50 to 500 mM NaCl in 30 CV. The fractions containing […]Δ49N-hChoKα or hChoKβ were pooled, concentrated and gel filtered on a Superdex200 16/60 (GE Healthcare). The final protein concentration was estimated using the Bradford assay. All the samples purified were resolved by SDS-PAGE.
(§2) Biochemical Kinase inhibition Assay on Δ49N-hChoKα and hChoKβFL
(§3) The biochemical activity of compounds against Δ49N-ChoKα and ChoK3 FL were determined using the Kinase-Glo™ Luminescent Kinase Assay (Promega cat. V6711). The assay is based on incubation of the recombinant Δ49N-hChoKα and hChoKβ FL produced in house, 2.2 nM and 30 nM, respectively, with the specific substrates, choline (Sigma-Aldrich-C7017) and ATP, followed by quantification, at the end of reaction time, of the residual not reacted ATP.
(§4) Compounds were 3-fold serially diluted from 10 to 0.0005 μM, then incubated for 60 minutes at room temperature in the presence of ATP 5 μM, choline (5 μM for ChoKα and 20 μM for ChoKβ) and enzyme in a final volume of 19 μL of kinase buffer (50 mM Hepes pH 7.5, 10 mM MgCl2, 1 mM DTT, 3 μM Na3VO4 and 0.2 mg/mL BSA). The final concentration of DMSO was 1%. The assay was run in a robotized format on 384-well plates (Perkin Elmer cat. #6005301).
(§5) At the end of the incubation, an amount of 19 μL of KinaseGlo Reagent was added to each well to stop the reaction and after 30 minutes the luminescence signal was measured using ViewLux reader (Perkin Elmer).
(§6) All information about plate dilution, distribution and raw data of inhibition are tracked via barcode reading and stored in an Oracle DB. The data per each molecule are analyzed by an internally customized version of the SW package “Assay Explorer” which provides sigmoidal fittings of the ten-dilution curves for IC50 determination using a 4 parameter logistic equation: y=bottom+(top−bottom)/(1+10^((log IC50−x)*slope)) where x is the logarithm of the inhibitor concentration, y is the response; y starts at bottom and goes to top with a sigmoid shape.

hChoKβ FL = biological target: T2, hChoKβ FL (Homo sapiens, UniProt Q9Y259); assay: Biochemical kinase inhibition assay (Kinase-Glo luminescent) on hChoKβ FL; details: ATP 5 μM, choline 20 μM, 60 min rt
T2 construct: hChoKβ full length (FL), corresponding to aminoacids 2-395; GST (N, cleaved yes); PreScission Protease recognition site (N); made in house; host or cells: Escherichia coli BL21pLysS (DE3)
Protocol: as §1, §2, §3, §4, §5, §6

[1] = recombinant Δ49N-hChoKα 2.2 nM, read-out: ChoKα IC50
[2] = recombinant hChoKβ FL 30 nM, read-out: ChoKβ IC50

T1 sequence (P35790 50-439 isoform P35790-2): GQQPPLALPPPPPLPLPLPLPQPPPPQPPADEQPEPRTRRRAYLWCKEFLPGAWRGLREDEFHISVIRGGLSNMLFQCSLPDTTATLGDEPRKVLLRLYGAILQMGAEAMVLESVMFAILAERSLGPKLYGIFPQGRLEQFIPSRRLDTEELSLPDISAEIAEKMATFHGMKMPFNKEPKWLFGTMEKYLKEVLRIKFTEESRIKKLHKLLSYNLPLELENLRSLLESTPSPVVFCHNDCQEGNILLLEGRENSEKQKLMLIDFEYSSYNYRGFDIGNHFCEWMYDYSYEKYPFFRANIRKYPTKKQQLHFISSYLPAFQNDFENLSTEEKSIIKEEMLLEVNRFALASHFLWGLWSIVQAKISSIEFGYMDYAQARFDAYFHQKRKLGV
T2 sequence (Q9Y259 2-395): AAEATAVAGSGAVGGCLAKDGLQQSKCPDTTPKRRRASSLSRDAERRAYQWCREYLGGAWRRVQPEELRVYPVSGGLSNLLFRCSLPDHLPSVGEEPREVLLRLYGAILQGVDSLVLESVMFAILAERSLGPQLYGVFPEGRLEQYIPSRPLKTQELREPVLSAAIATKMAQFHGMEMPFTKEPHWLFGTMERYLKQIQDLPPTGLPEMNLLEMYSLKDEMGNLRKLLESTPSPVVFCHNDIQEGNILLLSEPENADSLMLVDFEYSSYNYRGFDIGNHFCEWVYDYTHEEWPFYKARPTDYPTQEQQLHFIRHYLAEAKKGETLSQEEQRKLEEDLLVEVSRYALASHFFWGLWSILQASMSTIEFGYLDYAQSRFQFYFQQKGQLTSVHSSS

SMILES | IC50 (Δ49N-hChoKα; [1]) [nM] | IC50 (hChoKβ FL; [2]) [nM] | IC50 (hChoKβ FL; ChoKβ IC50, recombinant hChoKβ FL 30 nM) [nM] | IC50 (Δ49N-hChoKα; ChoKα IC50, recombinant Δ49N-hChoKα 2.2 nM) [nM]
Cn1nc(C(N)=O)c2c1-c1nc(N)ncc1CC2(C)C [Ref. cpd 1, reference compound] | > 10000 |  |  | 
CNC(=O)c1nn(C)c2c1C(C)(C)Cc1cnc(N)nc1-2 [Ref. cpd 2, reference compound] | > 10000 |  |  | 
COc1cccc(NC(=O)c2n[nH]c3c2C(C)(C)Cc2cnc(N)nc2-3)c1 [compound 1] | 257 | 1580 |  | 
COc1ccc(NC(=O)c2n[nH]c3c2C(C)(C)Cc2cnc(N)nc2-3)cc1 [compound 2] | 247 | 974 |  | 
CC1(C)Cc2cnc(N)nc2-c2[nH]nc(C(=O)Nc3ccc(OC(F)(F)F)cc3)c21 [compound 3] | 992 | > 10000 |  | 
CC1(C)Cc2cnc(N)nc2-c2[nH]nc(C(=O)Nc3ccc4c(c3)OCO4)c21 [compound 4] | 244 | 1120 |  | 
CCOC(=O)c1ccc(NC(=O)c2n[nH]c3c2C(C)(C)Cc2cnc(N)nc2-3)cc1 [compound 5] | 481 | 2590 |  | 
CN1CCN(c2ccc(NC(=O)c3n[nH]c4c3C(C)(C)Cc3cnc(N)nc3-4)cc2)CC1 [compound 6] | 735 | 317 |  | 
CN1CCC(NC(=O)c2ccc(NC(=O)c3n[nH]c4c3C(C)(C)Cc3cnc(N)nc3-4)cc2)CC1 [compound 8] | 87 | 565 |  | 
CN1CCC(NC(=O)c2ccc(NC(=O)c3nn(CCCO)c4c3C(C)(C)Cc3cnc(N)nc3-4)cc2)CC1 [compound 9] | 693 | 5390 |  | 
CN1CCC(NC(=O)c2cccc(NC(=O)c3n[nH]c4c3C(C)(C)Cc3cnc(N)nc3-4)c2)CC1 [compound 10] | 173 | 817 |  | 
CC1(C)Cc2cnc(N)nc2-c2[nH]nc(C(=O)Nc3ccc(C(=O)NC4CCOCC4)cc3)c21 [compound 11] | 195 | 395 |  | 
CC1(C)Cc2cnc(N)nc2-c2[nH]nc(C(=O)Nc3ccc(C(=O)N4CCC(N5CCCC5)CC4)cc3)c21 [compound 13] | 42 | 122 |  | 
CN(C)C1CCN(C(=O)c2ccc(NC(=O)c3n[nH]c4c3C(C)(C)Cc3cnc(N)nc3-4)cc2)CC1 [compound 14] | 198 | 37 |  | 
CC1(C)Cc2cnc(N)nc2-c2[nH]nc(C(=O)Nc3ccc(C(=O)NC4CCCCC4)cc3)c21 [compound 16] | 75 | 63 |  | 
CCOC(=O)c1cccc(NC(=O)c2n[nH]c3c2C(C)(C)Cc2cnc(N)nc2-3)c1 [compound 17] | 795 | 2290 |  | 
CC1(C)Cc2cnc(N)nc2-c2[nH]nc(C(=O)Nc3cccc(C(=O)O)c3)c21 [compound 18] | 641 | 6350 |  | 
CC1(C)Cc2cnc(N)nc2-c2[nH]nc(C(=O)Nc3ccc(C(=O)N4CCC(N5CCCCC5)CC4)cc3)c21 [compound 20] | 24 | 76 |  | 
CC1(C)Cc2cnc(N)nc2-c2[nH]nc(C(=O)Nc3cccc(C(=O)NC4CCCCC4)c3)c21 [compound 25] | 253 | 625 |  | 
CC1(C)Cc2cnc(N)nc2-c2[nH]nc(C(=O)Nc3cccc(C(=O)N4CCC(N5CCCC5)CC4)c3)c21 [compound 26] | 266 | 435 |  | 
CNC(=O)c1ccc(NC(=O)c2n[nH]c3c2C(C)(C)Cc2cnc(N)nc2-3)cc1 [compound 27] | 267 | 444 |  | 
CC1(C)Cc2cnc(N)nc2-c2[nH]nc(C(=O)Nc3ccc(C(=O)N[C@H]4CC[C@H](O)CC4)cc3)c21 [compound 28] | 511 | 3110 |  | 

SMILES | IC50 (Δ49N-hChoKα; [1]) [nM] | IC50 (hChoKβ FL; [2]) [nM] | IC50 (hChoKβ FL; ChoKβ IC50, recombinant hChoKβ FL 30 nM) [nM] | IC50 (Δ49N-hChoKα; ChoKα IC50, recombinant Δ49N-hChoKα 2.2 nM) [nM]
CC1(C)Cc2cnc(N)nc2-c2[nH]nc(C(=O)Nc3ccc(C(=O)NC4CCCC4)cc3)c21 [compound 29] | 132 | 71 |  | 
CC1(C)Cc2cnc(N)nc2-c2[nH]nc(C(=O)Nc3ccc(C(=O)NC4CCC4)cc3)c21 [compound 30] | 110 | 136 |  | 
CC1(C)Cc2cnc(N)nc2-c2[nH]nc(C(=O)Nc3ccc(C(=O)NC4CC4)cc3)c21 [compound 31] | 257 | 431 |  | 
Cc1csc(NC(=O)c2n[nH]c3c2C(C)(C)Cc2cnc(N)nc2-3)n1 [compound 32] | 66 | 1090 |  | 
CCOC(=O)Cc1csc(NC(=O)c2n[nH]c3c2C(C)(C)Cc2cnc(N)nc2-3)n1 [compound 33] | 430 | > 10000 |  | 
CC1(C)Cc2cnc(N)nc2-c2[nH]nc(C(=O)NC3CCCCC3)c21 [compound 34] | 748 | > 10000 |  | 
CC1(C)Cc2cnc(N)nc2-c2[nH]nc(C(=O)Nc3nc(CC(=O)NC4CCCCC4)cs3)c21 [compound 35] | 47 | 439 |  | 
CC1(C)Cc2cnc(N)nc2-c2[nH]nc(C(=O)N3CCC(N4CCCC4)CC3)c21 [compound 36] | 480 | > 10000 |  | 
CC1(C)Cc2cnc(N)nc2-c2[nH]nc(C(=O)Nc3nc(CC(=O)N4CCC(N5CCCC5)CC4)cs3)c21 [compound 37] | 3 | 69 |  | 
CC1(C)Cc2cnc(N)nc2-c2[nH]nc(C(=O)N3CCC(N4CCCCC4)CC3)c21 [compound 38] | 682 | > 10000 |  | 
CN1CCN(C2CCN(C(=O)c3ccc(NC(=O)c4n[nH]c5c4C(C)(C)Cc4cnc(N)nc4-5)cc3)CC2)CC1 [compound 41] | 70 | 471 |  | 
CC1(C)Cc2cnc(N)nc2-c2[nH]nc(C(=O)Nc3nc(CC(=O)O)cs3)c21 [compound 42] | 54 | > 10000 |  | 
CC(C)(C)OC(=O)NC1CCN(C(=O)Cc2csc(NC(=O)c3n[nH]c4c3C(C)(C)Cc3cnc(N)nc3-4)n2)CC1 [compound 43] | 7 | 1030 |  | 
CC1(C)Cc2cnc(N)nc2-c2[nH]nc(C(=O)Nc3nc(CC(=O)N4CCC(N)CC4)cs3)c21 [compound 44] | 25 | 256 |  | 
CC1(C)Cc2cnc(N)nc2-c2[nH]nc(C(=O)Nc3nc(CC(=O)N4CCC(=O)CC4)cs3)c21 [compound 45] |  |  | > 10000 | 121
CC(C)(C)OC(=O)NC1CCN(C(=O)c2ccc(NC(=O)c3n[nH]c4c3C(C)(C)Cc3cnc(N)nc3-4)cc2)CC1 [compound 46] | 110 | 1620 |  | 
CC1(C)Cc2cnc(N)nc2-c2[nH]nc(C(=O)Nc3nc(CC(=O)N4CCC(N5CCCCCC5)CC4)cs3)c21 [compound 47] | 2 | 86 |  | 
CC1(C)Cc2cnc(N)nc2-c2[nH]nc(C(=O)Nc3ccc(C(=O)N4CCC(N)CC4)cc3)c21 [compound 49] | 623 | 765 |  | 
CC1(C)Cc2cnc(N)nc2-c2[nH]nc(C(=O)Nc3ccc(C(=O)N4CCC(N5CCOCC5)CC4)cc3)c21 [compound 50] | 215 | 716 |  | 
CC1(C)Cc2cnc(N)nc2-c2[nH]nc(C(=O)Nc3ccc(C(=O)N4CCC(N5CCC(F)(F)CC5)CC4)cc3)c21 [compound 51] | 151 | 273 |  | 
CC1CCN(C2CCN(C(=O)c3ccc(NC(=O)c4n[nH]c5c4C(C)(C)Cc4cnc(N)nc4-5)cc3)CC2)CC1 [compound 52] | 3 | 70 |  | 
